Measurements published in patent US7875599B2, “C-17-heteroaryl steroidal CYP17 inhibitors/antiandrogens, in vitro biological activities, pharmacokinetics and antitumor activity” (University of Maryland, priority 2005, dated 2011).
Where two headings read alike, the source gives them in different places.

Assays:
CYP17 = target: T1, CYP17 (Homo sapiens, UniProt P05093); assay: CYP17 inhibition, acetic acid releasing assay with intact P450c17-expressing E. coli
T1 sequence (P05093 1-508): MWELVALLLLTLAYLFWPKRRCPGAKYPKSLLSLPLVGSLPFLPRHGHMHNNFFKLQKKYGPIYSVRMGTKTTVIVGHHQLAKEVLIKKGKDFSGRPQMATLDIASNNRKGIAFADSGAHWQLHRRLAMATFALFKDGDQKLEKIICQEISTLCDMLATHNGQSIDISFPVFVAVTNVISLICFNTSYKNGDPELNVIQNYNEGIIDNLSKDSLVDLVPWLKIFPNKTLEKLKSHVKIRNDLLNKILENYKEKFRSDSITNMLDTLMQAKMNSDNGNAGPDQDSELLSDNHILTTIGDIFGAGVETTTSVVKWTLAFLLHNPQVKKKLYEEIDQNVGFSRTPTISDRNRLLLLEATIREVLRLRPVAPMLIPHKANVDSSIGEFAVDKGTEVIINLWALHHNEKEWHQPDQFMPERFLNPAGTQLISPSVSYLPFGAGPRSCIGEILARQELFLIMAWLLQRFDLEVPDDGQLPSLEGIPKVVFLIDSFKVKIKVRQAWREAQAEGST

[1] = Pharmacokinetics after single s.c. dose in male SCID mice; type: in vivo, mouse; settings: for peak plasma level: mice (as printed in summary b4); for half-life: male, SCID
Source text: Pharmacokinetics of 5 and 6 and metabolism of 5: The pharmacokinetic properties in male SCID mouse for the two lead compounds, 5 and 6 are studied following our recently described procedure for other CYP17 inhibitors (Nnane et al., “Pharmacokinetic profile of 3β-hydroxy-17-(1H-123-triazol-1-yl)androsta-5,16-diene (VN/87-1), a potent androgen synthesis inhibitor in mice”, J. Steroid Biochem. Molec. Biol., 2001, 71, 145-152; and Handratta et al., “Potent CYP17 inhibitors: improved syntheses, pharmacokinetics and anti-tumor activity in the LNCaP human prostate cancer model”, J. Steroid Biochem. Molec. Biol., 2004, 92, 155-165.
Pharmacokinetic Studies All animal studies are performed according to the guidelines and approval of the Animal Care Committee of the University of Maryland School of Medicine, Baltimore. Male SCID mice weighing 20-22 gm (8-10 weeks old) obtained from NCI, Frederick, Md., USA are maintained in a controlled environment of about 25° C., 50% relative humidity and 12 h of light and 12 h of dark cycles and allowed free access to food and water. Compounds 5 and 6 are formulated in 40% β-cyclodextrin in water and a single subcutaneous dose is given to mice. The animals are sacrificed at various times up to 6 h after drug administration and blood was obtained by cardiac puncture under light halothane (Ayerst, New York, N.Y., USA) anesthesia.
HPLC Analysis: Chromatographic separations and quantification of the steroids and the appropriate internal standards are achieved by a reverse phase HPLC method on a Waters® Novapak® C18 column (3.9×150 mm) protected by Waters® guard cartridge packed with pellicle C18 as previously described. Briefly, the HPLC system used in this study consisted of Waters® solvent delivery system, Waters® controller (Milford, Mass.), coupled to a Waters® 717^plus autosampler and a Waters® 996 photodiode array detector operated at 242.7 nm. The mobile phase composition is Water/MeOH/CH3CN (35:35:30, v/v/v+200 μl, of Et3N and 0.77 g of NH4OAc per 1000 mL of mobile phase) at a flow rate of 1.0 mL/min. The HPLC analysis is performed at ambient temperature and data acquisition and management ius achieved with a Waters® millennium chromatography manager.
Sample Preparation: Test tubes containing mouse plasma (200 μL), 5 or 6 and VN/85-1 (internal standard, 10 μL of 100 μg/mL), are extracted with diethyl ether (2×2 mL) using a vortex mixer for 3 minutes and centrifuged at 3000 g for 5 min. The organic layers are evaporated to dryness under a gentle stream of air. The residue is reconstituted in an aliquot of the mobile phase (100 μL) and filtered using 0.2 μm Teflon filters before HPLC analysis. Calibration Curve and HPLC Assay Validation: The calibration curves for 5 in plasma and tissue and for 6 in plasma are constructed by spiking varying amounts of the compounds into extraction tubes (duplicate) containing plasma (200 μL) and tissue preparations (200 μL) from untreated animals to give final concentrations of 0.1-100.0 μg/mL. Appropriate blank extraction tubes are also prepared and an aliquot of the internal standard is added into each extraction tube to give a final concentration of 5 μg/ml. The calibration samples are taken through the sample preparation procedure as described above. An aliquot of the reconstituted extract (50 μl) is injected into the HPLC system and the ratio of the peak areas for each analyte to that of the internal standard are plotted against concentrations of 5 or 6. The precision and accuracy of the assays are determined from a range of known concentrations of the inhibitors in blank plasma and taken through the HPLC procedure. The study is repeated on three separate occasions.
Data Analysis: Pharmacokinetic calculations are performed as previously described. The non-compartmental pharmacokinetic calculations are performed using WinNOnlin (Scientific Consulting Inc.). […]

[2] = target: T2, human 5α-reductase type 1 (Homo sapiens, UniProt P18405); assay: Human 5α-reductase type 1 assay (DU-145 cell line)
T2 sequence (P18405 1-259): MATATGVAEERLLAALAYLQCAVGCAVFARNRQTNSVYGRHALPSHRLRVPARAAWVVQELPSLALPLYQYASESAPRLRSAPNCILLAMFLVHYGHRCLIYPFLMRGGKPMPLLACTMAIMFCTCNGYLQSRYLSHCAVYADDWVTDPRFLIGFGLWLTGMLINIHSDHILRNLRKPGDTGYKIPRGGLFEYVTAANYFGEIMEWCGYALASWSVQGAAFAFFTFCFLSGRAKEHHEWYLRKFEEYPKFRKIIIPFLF

[3] = target: T3, human 5α-reductase type 2 (Homo sapiens, UniProt P31213); assay: Human 5α-reductase type 2 assay (BPH tissue homogenate)
T3 sequence (P31213 1-254): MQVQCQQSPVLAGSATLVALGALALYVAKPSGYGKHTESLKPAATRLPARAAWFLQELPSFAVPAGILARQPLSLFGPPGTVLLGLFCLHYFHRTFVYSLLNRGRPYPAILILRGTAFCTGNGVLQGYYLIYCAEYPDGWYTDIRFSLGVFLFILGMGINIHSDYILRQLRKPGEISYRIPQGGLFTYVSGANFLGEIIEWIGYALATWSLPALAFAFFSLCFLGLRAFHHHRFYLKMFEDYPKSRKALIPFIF

[4] = mouse, plasma, sc, 50 mg/kg, 50 mg/kg s.c., male SCID mice

## C[C@]12CC[C@H](O)CC1=CC[C@@H]1[C@@H]2CC[C@]2(C)C(n3cnc4ccccc43)=CC[C@@H]12 [Compound 5, 3β-Hydroxy-17-(1H-benzimidazol-1-yl)androsta-5,16-diene]
CYP17
  IC50: 300 nM
[1]; 50 mg/kg s.c., male SCID mice
  AUC: 1440.00 ± 60.23 µg·min/mL
  Cmax: 16820 ± 370 ng/mL
  MRT: 65.40 ± 0.60 min
  Tmax: 30.0 min
  Vd: 2098.99 ± 4. mL/kg
[1]; 50 mg/kg s.c.
  peak plasma level: 16.82 ng/mL
[1]; 100 mg/kg s.c., male SCID mice
  AUC: 1813.94 ± 10.94 µg·min/mL
  Cmax: 32230 ± 340 ng/mL
  MRT: 60.46 ± 1.54 min
  Tmax: 30.00 ± 0.0 min
  Vd: 113276.39 ± 26.71 mL/kg
[1]; [4]
  half-life: 44.2 min
[1]; mouse, plasma, sc, 100 mg/kg, 100 mg/kg s.c., male SCID mice
  half-life: 36.6 ± 1.6 min
[1]; s.c. administration, male SCID mice
  clearance from the systemic circulation: 33.1023 mL/min/kg
[2]; read-out: 5α-Reductase type 1 % inhibition at 10 μM
  inhibition at 10 µM: 4%
[3]; read-out: 5α-Reductase type 2 % inhibition at 10 μM
  inhibition at 10 µM: 53%

## C[C@]12CCC(=O)C=C1CC[C@@H]1[C@@H]2CC[C@]2(C)C(n3cnc4ccccc43)=CC[C@@H]12 [Compound 6, 17-(1H-benzimidazol-1-yl)androsta-4,16-diene-3-one]
CYP17
  IC50: 915 nM
[1]; 50 mg/kg s.c., male SCID mice
  Kel: 0.0183 ± 0.004 min⁻¹
  Vd: 4207.24 ± 6.25 mL/kg
[1]; 50 mg/kg s.c., male SCID mice, plasma
  t1/2: 37.93 ± 1.15 min
[1]; 50 mg/kg s.c.
  peak plasma level: 5.15 ng/mL
[1]; in vivo pharmacokinetics in mice
  metabolism of the compound detected in plasma: did not detect any metabolism(s)
[1]; [4]
  half-life: 39.9 min
[1]; mouse, plasma, sc, 50 mg/kg s.c., male SCID mice, read-out: AUC (converted)
  AUC: 647 µg·min/mL
[1]; mouse, plasma, sc, 50 mg/kg s.c., male SCID mice, read-out: Cmax
  Cmax: 5150 ± 90 ng/mL
[1]; mouse, plasma, sc, 50 mg/kg s.c., male SCID mice, read-out: MRT (converted)
  MRT: 80 min
[1]; mouse, plasma, sc, 50 mg/kg s.c., male SCID mice, read-out: Tmax (converted)
  Tmax: 60 min
[1]; s.c. administration, mice
  time after administration at which compound was not detected in plasma: 8 h
[2]
  IC50: 770 nM
[3]
  IC50: 480 nM
